The values that follow come from patent US6051582A, “Compounds useful for inhibition of farnesyl protein transferase” (Schering Corporation, priority 1998, dated 2000).

Each structure is given as a SMILES string.

The target of assay [1] is farnesyl protein transferase (Homo sapiens, UniProt P49354+P49356). As to the kind of experiment: FPT inhibition, in vitro enzyme assay. In kind it is biochemical. On the procedure:
(§1) FPT IC50 (inhibition of farnesyl protein transferase, in vitro enzyme assay) and COS Cell IC50 (Cell-Based Assay) were determined following the assay procedures described in WO 95/10516, published Apr. 20, 1995. GGPT IC50 (inhibition of geranylgeranyl protein transferase, in vitro enzyme assay), Cell Mat Assay, and anti-tumor activity (in vivo anti-tumor studies) could be determined by the assay procedures described in WO 95/10516. The disclosure of WO 95/10516 is incorporated herein by reference thereto.

The test system of the next assay is COS Cell. As to the kind of experiment: COS Cell-Based Assay. How it is done:
as §1

The IC50 is the midpoint of a concentration-inhibition curve. A low value points to greater potency in that assay.

Sequence of farnesyl protein transferase (P49356 whole entry, one chain of several): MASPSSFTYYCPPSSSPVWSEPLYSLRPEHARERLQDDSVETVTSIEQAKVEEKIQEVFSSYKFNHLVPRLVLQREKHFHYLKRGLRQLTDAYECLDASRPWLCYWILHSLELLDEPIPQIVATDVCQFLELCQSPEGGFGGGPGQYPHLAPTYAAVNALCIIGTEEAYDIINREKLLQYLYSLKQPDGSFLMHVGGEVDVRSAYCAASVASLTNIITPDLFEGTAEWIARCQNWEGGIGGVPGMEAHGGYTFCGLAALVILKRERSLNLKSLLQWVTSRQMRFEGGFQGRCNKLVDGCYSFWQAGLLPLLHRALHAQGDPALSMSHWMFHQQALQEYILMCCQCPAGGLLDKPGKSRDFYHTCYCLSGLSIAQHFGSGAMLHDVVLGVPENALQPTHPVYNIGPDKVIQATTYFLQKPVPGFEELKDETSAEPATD

`CC1(CC(=O)N2CCC([C@H]3c4ncc(Br)cc4CCc4cc(Cl)cc(Br)c43)CC2)CCN(S(C)(=O)=O)CC1` [Example 1]: the 50% inhibitory concentration (IC50) in assay [1] is 0.019 µM; in the assay on COS Cell it was 0.022 µM.
